According to ChEMBL document CHEMBL3885881, “DrugMatrix”:

Species on record: Rattus norvegicus
Assay: DrugMatrix - Regimen: Daily Repeat
Assay type: toxicity, organism-based, Sprague-Dawley
Parameters: regimen Daily Repeat, gender Male, age 6-8 weeks
Conditions: in vivo, po, route oral GAVAGE, vehicle .5 % CMC; for ABSOLUTE BASOPHIL / ABSOLUTE EOSINOPHIL / ABSOLUTE LYMPHOCYTE / ABSOLUTE MONOCYTE / ABSOLUTE SEGMENTED NEUTROPHIL / BASOPHIL / EOSINOPHIL / ERYTHROCYTE COUNT / HEMATOCRIT / HEMOGLOBIN / LEUKOCYTE COUNT / LYMPHOCYTE / MEAN CORPUSCULAR HEMOGLOBIN / MEAN CORPUSCULAR HEMOGLOBIN CONCENTRATION / MEAN CORPUSCULAR VOLUME / MONOCYTE / NEUTROPHIL / NUCLEATED RED BLOOD CELLS / PLATELET COUNT: tissue Blood; for ALANINE AMINOTRANSFERASE / ALBUMIN / ALKALINE PHOSPHATASE / ASPARTATE AMINOTRANSFERASE / BLOOD UREA NITROGEN / CARBON DIOXIDE / CHLORIDE / CHOLESTEROL / CREATINE PHOSPHOKINASE / CREATININE / GLUCOSE / LACTATE DEHYDROGENASE / LIPASE / PHOSPHORUS / POTASSIUM / SODIUM / TOTAL BILIRUBIN / TOTAL PROTEIN / URIC ACID: tissue Plasma
[1] = 0 mg/kg, 72 h, dose level Control, time 3 day
[2] = 0 mg/kg, 120 h, dose level Control, time 5 day
[3] = 88 mg/kg, 72 h, dose level Low, time 3 day

Compound: CC(C)[C@H](N)C(=O)OCCOCn1cnc2c(=O)[nH]c(N)nc21 [VALACYCLOVIR]
- ABSOLUTE BASOPHIL [1]: 0 CELLS/uL
- ABSOLUTE EOSINOPHIL [1]: 171.33 CELLS/uL
- ABSOLUTE LYMPHOCYTE [1]: 13776.5 CELLS/uL
- ABSOLUTE MONOCYTE [1]: 180.83 CELLS/uL
- ABSOLUTE SEGMENTED NEUTROPHIL [1]: 1121.33 CELLS/uL
- BASOPHIL [1]: 0%
- EOSINOPHIL [1]: 1%
- ERYTHROCYTE COUNT [1]: 5.56 x10E6/uL
- HEMATOCRIT [1]: 34.75%
- HEMOGLOBIN [1]: 13.68 G/DL
- LEUKOCYTE COUNT [1]: 15.25 x10E3/uL
- LYMPHOCYTE [1]: 90.17%
- MEAN CORPUSCULAR HEMOGLOBIN [1]: 24.6 pg
- MEAN CORPUSCULAR HEMOGLOBIN CONCENTRATION [1]: 39.4 G/DL
- MEAN CORPUSCULAR VOLUME [1]: 62.48 fL
- MONOCYTE [1]: 1.17%
- NEUTROPHIL [1]: 7.67%
- NUCLEATED RED BLOOD CELLS [1]: 0 /100WBC
- PLATELET COUNT [1]: 1342 x10E3/uL
- ALANINE AMINOTRANSFERASE [1]: 49.67 u/L
- ALBUMIN [1]: 4.15 G/DL
- ALKALINE PHOSPHATASE [1]: 346.83 u/L
- ASPARTATE AMINOTRANSFERASE [1]: 108.17 u/L
- BLOOD UREA NITROGEN [1]: 17.33 mg/dL
- CARBON DIOXIDE [1]: 25 mmol/L
- CHLORIDE [1]: 100.83 MEQ/L
- CHOLESTEROL [1]: 66.83 mg/dL
- CREATINE PHOSPHOKINASE [1]: 788 u/L
- CREATININE [1]: 0.18 mg/dL
- GLUCOSE [1]: 151.67 mg/dL
- LACTATE DEHYDROGENASE [1]: 982.5 u/L
- LIPASE [1]: 10.33 u/L
- PHOSPHORUS [1]: 11.23 mg/dL
- POTASSIUM [1]: 6.37 MEQ/L
- SODIUM [1]: 141.02 MEQ/L
- TOTAL BILIRUBIN [1]: 0.18 mg/dL
- TOTAL PROTEIN [1]: 5.9 G/DL
- URIC ACID [1]: 1.8 mg/dL
- ABSOLUTE BASOPHIL [2]: 0 CELLS/uL
- ABSOLUTE EOSINOPHIL [2]: 69 CELLS/uL
- ABSOLUTE LYMPHOCYTE [2]: 13632.83 CELLS/uL
- ABSOLUTE MONOCYTE [2]: 139.83 CELLS/uL
- ABSOLUTE SEGMENTED NEUTROPHIL [2]: 1225 CELLS/uL
- BASOPHIL [2]: 0%
- EOSINOPHIL [2]: 0.33%
- ERYTHROCYTE COUNT [2]: 5.52 x10E6/uL
- HEMATOCRIT [2]: 33.98%
- HEMOGLOBIN [2]: 13.22 G/DL
- LEUKOCYTE COUNT [2]: 15.07 x10E3/uL
- LYMPHOCYTE [2]: 90.83%
- MEAN CORPUSCULAR HEMOGLOBIN [2]: 23.95 pg
- MEAN CORPUSCULAR HEMOGLOBIN CONCENTRATION [2]: 38.9 G/DL
- MEAN CORPUSCULAR VOLUME [2]: 61.53 fL
- MONOCYTE [2]: 0.83%
- NEUTROPHIL [2]: 8%
- NUCLEATED RED BLOOD CELLS [2]: 0 /100WBC
- PLATELET COUNT [2]: 1196 x10E3/uL
- ALANINE AMINOTRANSFERASE [2]: 49.17 u/L
- ALBUMIN [2]: 4.2 G/DL
- ALKALINE PHOSPHATASE [2]: 352.33 u/L
- ASPARTATE AMINOTRANSFERASE [2]: 89.67 u/L
- BLOOD UREA NITROGEN [2]: 18 mg/dL
- CARBON DIOXIDE [2]: 27.67 mmol/L
- CHLORIDE [2]: 101 MEQ/L
- CHOLESTEROL [2]: 72.83 mg/dL
- CREATINE PHOSPHOKINASE [2]: 417.5 u/L
- CREATININE [2]: 0.18 mg/dL
- GLUCOSE [2]: 150.5 mg/dL
- LACTATE DEHYDROGENASE [2]: 517.33 u/L
- LIPASE [2]: 9 u/L
- PHOSPHORUS [2]: 11.87 mg/dL
- POTASSIUM [2]: 6.57 MEQ/L
- SODIUM [2]: 143.62 MEQ/L
- TOTAL BILIRUBIN [2]: 0.2 mg/dL
- TOTAL PROTEIN [2]: 6.08 G/DL
- URIC ACID [2]: 1.45 mg/dL
- ABSOLUTE BASOPHIL [3]: 0 CELLS/uL
- ABSOLUTE EOSINOPHIL [3]: 194 CELLS/uL
- ABSOLUTE LYMPHOCYTE [3]: 11636 CELLS/uL
- ABSOLUTE MONOCYTE [3]: 141 CELLS/uL
- ABSOLUTE SEGMENTED NEUTROPHIL [3]: 1129 CELLS/uL
- BASOPHIL [3]: 0%
- EOSINOPHIL [3]: 1.33%
- ERYTHROCYTE COUNT [3]: 5.5 x10E6/uL
- HEMATOCRIT [3]: 34.9%
- HEMOGLOBIN [3]: 13.63 G/DL
- LEUKOCYTE COUNT [3]: 13.1 x10E3/uL
- LYMPHOCYTE [3]: 89.33%
- MEAN CORPUSCULAR HEMOGLOBIN [3]: 24.77 pg
- MEAN CORPUSCULAR HEMOGLOBIN CONCENTRATION [3]: 39.07 G/DL
- MEAN CORPUSCULAR VOLUME [3]: 63.5 fL
- MONOCYTE [3]: 1%
- NEUTROPHIL [3]: 8.33%
- NUCLEATED RED BLOOD CELLS [3]: 0 /100WBC
- PLATELET COUNT [3]: 1139.67 x10E3/uL
